Measurements as given in patent US5652335A, “Physiologically active substance well capable of permeating biomembrane” (Teikoku Seiyaku Kabushiki Kaisha, priority 1990, dated 1997).

Tests used:
mouse (dd-Y series) = test: in vivo analgesic activity by Randall Selitto method; conditions: subcutaneous administration to mouse, 1-50 mg/kg, in DMA: physiological saline (4:6); FIG. 2-5
Description: Adamantylated enkephalin derivatives a and b are subcutaneously administrated to a mouse, and an analgesic effect in the central nervous system was measured by Randall Selitto method. That is, the derivatives a and b were dissolved in a mixed solution of DMA: physiological saline solution (4:6) and about 100 μl of the solution was subcutaneously administrated to a mouse (dd-Y series: about 20 g) (1-50 mg/kg), and the analgesic effect was measured on every predetermined time interval after the administration by the Randall Selitto method.

[1] = test system: extirpated intestine of guinea pig; test: suppressing effect on shrinkage of extirpated intestine of guinea pig by electric stimulations (method of Kosterlitz); assay type: cell-based; conditions: for ED50 (mol) (mean ± s.e.m.): suppression of electrically stimulated shrinkage of extirpated guinea pig intestine, in vitro
Description: Adamantylated enkephalin derivatives a and b obtained in Examples 1 and 2 were examined for in vivo analgesic effect and in vitro suppressing effect to shrinkage of extirpated intestine of guinea pig by electric stimulations.
A suppressing effect for the shrinkage of extirpated intestine of guinea pig of the adamantylated enkephalin derivatives a and b was measured in accordance with the method of Kosterlitz (H. W. Kosterlitz, A. A. Watterfield, Ann. Rev. Pharmacol., 15, 29, (1975)).

Compound	analgesic activity (mouse (dd-Y series))	Relative Potency [1]	suppression for shrinkage, antagonism by naloxon ([1]; extirpated guinea pig intestine)	ED50 (mol) (mean ± s.e.m.) [1]
H-Tyr-D.Ala-Gly-Phe-Leu-NH-Ada [Derivative b]	inferior to morphine hydrogen chloride but superior to the controls	2.13	showed suppression for shrinkage each of which was antagonized by naloxon	1.5 ± 0.71 × 10^-8 mol
CC(C)C[C@H](NC(=O)[C@H](Cc1ccccc1)NC(=O)CNC(=O)[C@@H](C)NC(=O)[C@@H](N)Cc1ccc(O)cc1)C(=O)O [[D-Ala^2] Leucine enkephalin, H-Tyr-D.Ala-Gly-Phe-Leu-OH, reference compound]		0.89		3.6 ± 1.17 × 10^-8 mol
